In one test the target is T1, kinase domain of BMX (Homo sapiens, UniProt P51813).
T1 construct: The kinase domains of JAK3 and BMX at 2 μM
Nature of the test: Thermal shift (ΔTm) assay. Format: binding. The conditions noted are these: 2 μM kinase domain, 10 μM inhibitor; mean ± SD of at least three measurements. The protocol:
(§1) The kinase domains of JAK3 and BMX at 2 μM were mixed with the inhibitors at 10 μM, and subsequently SyPRO orange dye (Invitrogen Carlsbad, CA, USA) was added. The thermal shift assay and data evaluation were performed as described previously using a Real-Time PCR Mx3005p machine (Stratagene, La Jolla, CA, USA).

A further test addresses T2, kinase domain of JAK3 (Homo sapiens, UniProt P52333).
T2 construct: The kinase domains of JAK3 and BMX at 2 μM; made in house
Nature of the test: Thermal shift (ΔTm) assay. Conditions: 2 μM kinase domain, 10 μM inhibitor; mean ± SD of at least three measurements. The class given is binding. The method, then: as §1

The next test has as its target T3, EGFR (Homo sapiens, UniProt P00533).
T3 construct: purchased Reaction Biology Corporation
Nature of the test: Radiometric kinase assay (Reaction Biology HotSpot). Format: biochemical. The conditions noted are these: [ATP] = 10 μM; for remaining activity at 0.2 µM: 200 nM compound, duplicate mean, read-out: Residual Activity @ 200 nM, EGFR; for IC50: radiometric HotSpot, five-dose singlicate. The protocol: (§2) If not mentioned differently, in vitro profiling of compounds was performed at Reaction Biology Corporation using the HotSpot™ assay platform.

In a further test the target is T4, HER2 (Homo sapiens, UniProt P04626).
T4 construct: purchased Reaction Biology Corporation
T4 sequence (P04626 23-1255): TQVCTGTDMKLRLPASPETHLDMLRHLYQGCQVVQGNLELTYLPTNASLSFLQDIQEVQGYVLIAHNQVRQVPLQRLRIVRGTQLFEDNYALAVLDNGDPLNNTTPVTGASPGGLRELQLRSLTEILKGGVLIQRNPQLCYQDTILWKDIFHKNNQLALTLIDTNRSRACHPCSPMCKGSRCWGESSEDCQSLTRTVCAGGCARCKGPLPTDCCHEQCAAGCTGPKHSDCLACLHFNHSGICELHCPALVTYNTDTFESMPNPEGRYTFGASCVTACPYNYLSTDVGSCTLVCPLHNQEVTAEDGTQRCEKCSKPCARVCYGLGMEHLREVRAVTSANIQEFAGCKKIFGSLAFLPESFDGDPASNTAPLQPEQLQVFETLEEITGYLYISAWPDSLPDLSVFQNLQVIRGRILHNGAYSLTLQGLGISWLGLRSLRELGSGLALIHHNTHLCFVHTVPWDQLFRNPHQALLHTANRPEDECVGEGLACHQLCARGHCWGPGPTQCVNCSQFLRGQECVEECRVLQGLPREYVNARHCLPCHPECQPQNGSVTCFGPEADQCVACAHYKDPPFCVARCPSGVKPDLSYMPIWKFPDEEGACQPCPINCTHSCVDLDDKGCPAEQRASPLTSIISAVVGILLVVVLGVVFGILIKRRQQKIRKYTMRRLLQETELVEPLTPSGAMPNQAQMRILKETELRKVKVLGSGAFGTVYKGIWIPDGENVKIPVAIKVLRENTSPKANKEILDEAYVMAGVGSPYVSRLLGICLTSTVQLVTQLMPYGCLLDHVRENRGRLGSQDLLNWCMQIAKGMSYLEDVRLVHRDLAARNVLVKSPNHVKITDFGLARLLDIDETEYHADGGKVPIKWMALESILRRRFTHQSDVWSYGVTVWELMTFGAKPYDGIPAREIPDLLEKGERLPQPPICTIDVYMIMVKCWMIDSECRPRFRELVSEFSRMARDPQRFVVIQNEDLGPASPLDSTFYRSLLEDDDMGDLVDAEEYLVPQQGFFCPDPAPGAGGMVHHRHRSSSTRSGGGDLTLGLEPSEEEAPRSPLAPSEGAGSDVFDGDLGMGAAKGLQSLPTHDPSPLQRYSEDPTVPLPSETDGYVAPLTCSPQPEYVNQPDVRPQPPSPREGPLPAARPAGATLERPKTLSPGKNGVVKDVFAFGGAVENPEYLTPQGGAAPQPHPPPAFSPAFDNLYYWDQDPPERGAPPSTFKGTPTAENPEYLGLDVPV
The test is described as above. Format: biochemical. Conditions: [ATP] = 10 μM; for remaining activity at 0.2 µM: 200 nM compound, duplicate mean, read-out: Residual Activity @ 200 nM, HER2. The method, then: as §2

The target of the next test is T5, TEC (Homo sapiens, UniProt P42680).
T5 construct: purchased Reaction Biology Corporation
T5 sequence (P42680 1-631): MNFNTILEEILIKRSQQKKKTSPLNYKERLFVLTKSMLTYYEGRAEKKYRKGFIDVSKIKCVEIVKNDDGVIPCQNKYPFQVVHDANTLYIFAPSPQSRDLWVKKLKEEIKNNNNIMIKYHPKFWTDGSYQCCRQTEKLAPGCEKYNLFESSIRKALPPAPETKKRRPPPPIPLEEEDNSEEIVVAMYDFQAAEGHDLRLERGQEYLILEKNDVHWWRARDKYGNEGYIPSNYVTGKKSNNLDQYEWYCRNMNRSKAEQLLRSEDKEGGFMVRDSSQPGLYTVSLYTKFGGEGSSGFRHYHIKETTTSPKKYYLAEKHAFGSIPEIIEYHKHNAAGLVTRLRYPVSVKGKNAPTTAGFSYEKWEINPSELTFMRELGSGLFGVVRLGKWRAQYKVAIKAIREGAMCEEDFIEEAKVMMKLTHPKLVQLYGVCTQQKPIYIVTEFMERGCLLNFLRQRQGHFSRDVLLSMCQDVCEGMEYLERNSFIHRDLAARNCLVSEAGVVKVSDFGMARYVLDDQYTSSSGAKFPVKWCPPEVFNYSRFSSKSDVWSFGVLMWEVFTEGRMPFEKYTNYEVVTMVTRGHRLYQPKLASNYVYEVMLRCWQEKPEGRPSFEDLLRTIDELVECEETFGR
Described as above. Format: biochemical. Conditions: [ATP] = 10 μM; for remaining activity at 0.2 µM: 200 nM compound, duplicate mean, read-out: Residual Activity @ 200 nM, TEC. The method, then:
as §2

The next test concerns the target T6, BMX (Homo sapiens, UniProt P51813).
T6 construct: purchased Reaction Biology Corporation
T6 sequence (P51813 1-675): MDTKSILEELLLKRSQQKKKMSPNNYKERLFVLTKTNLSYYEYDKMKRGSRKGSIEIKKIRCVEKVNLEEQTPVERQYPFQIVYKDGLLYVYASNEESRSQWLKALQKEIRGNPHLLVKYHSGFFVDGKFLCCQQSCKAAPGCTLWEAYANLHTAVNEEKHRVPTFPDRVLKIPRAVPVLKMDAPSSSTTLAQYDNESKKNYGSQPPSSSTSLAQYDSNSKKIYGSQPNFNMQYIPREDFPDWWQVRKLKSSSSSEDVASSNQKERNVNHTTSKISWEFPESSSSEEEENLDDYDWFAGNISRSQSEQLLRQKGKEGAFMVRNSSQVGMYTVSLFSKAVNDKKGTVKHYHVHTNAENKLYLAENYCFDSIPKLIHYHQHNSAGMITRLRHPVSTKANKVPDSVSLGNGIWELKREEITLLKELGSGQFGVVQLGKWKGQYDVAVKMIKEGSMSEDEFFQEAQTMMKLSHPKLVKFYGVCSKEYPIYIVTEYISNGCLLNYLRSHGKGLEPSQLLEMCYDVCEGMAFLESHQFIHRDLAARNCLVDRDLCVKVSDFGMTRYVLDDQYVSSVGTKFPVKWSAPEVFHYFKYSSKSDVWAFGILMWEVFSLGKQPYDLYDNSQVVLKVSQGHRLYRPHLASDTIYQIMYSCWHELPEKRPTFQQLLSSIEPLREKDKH
The description is as above. Conditions: [ATP] = 10 μM; for IC50: radiometric HotSpot, five-dose singlicate; for remaining activity at 0.2 µM: 200 nM compound, duplicate mean, read-out: Residual Activity @ 200 nM, BMX. The class given is biochemical. The method, then: as §2

Where [1] appears, read: radiometric HotSpot, five-dose singlicate.

Among the data in PMC7730235, “Discovery of a Novel Class of Covalent Dual Inhibitors Targeting the Protein Kinases BMX and BTK” (International Journal of Molecular Sciences, 2020) are ΔTm, remaining activity and IC50 values, retold here.

T2 sequence (P52333 822-1111 limits assumed): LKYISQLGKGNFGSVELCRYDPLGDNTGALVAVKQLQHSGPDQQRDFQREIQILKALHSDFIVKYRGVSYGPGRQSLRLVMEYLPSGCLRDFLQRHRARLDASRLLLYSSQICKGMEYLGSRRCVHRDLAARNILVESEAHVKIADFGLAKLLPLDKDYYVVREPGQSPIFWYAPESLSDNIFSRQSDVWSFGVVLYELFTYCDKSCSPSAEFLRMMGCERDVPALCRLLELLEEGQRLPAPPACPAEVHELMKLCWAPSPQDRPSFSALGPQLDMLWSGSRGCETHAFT
T3 sequence (P00533 25-1210): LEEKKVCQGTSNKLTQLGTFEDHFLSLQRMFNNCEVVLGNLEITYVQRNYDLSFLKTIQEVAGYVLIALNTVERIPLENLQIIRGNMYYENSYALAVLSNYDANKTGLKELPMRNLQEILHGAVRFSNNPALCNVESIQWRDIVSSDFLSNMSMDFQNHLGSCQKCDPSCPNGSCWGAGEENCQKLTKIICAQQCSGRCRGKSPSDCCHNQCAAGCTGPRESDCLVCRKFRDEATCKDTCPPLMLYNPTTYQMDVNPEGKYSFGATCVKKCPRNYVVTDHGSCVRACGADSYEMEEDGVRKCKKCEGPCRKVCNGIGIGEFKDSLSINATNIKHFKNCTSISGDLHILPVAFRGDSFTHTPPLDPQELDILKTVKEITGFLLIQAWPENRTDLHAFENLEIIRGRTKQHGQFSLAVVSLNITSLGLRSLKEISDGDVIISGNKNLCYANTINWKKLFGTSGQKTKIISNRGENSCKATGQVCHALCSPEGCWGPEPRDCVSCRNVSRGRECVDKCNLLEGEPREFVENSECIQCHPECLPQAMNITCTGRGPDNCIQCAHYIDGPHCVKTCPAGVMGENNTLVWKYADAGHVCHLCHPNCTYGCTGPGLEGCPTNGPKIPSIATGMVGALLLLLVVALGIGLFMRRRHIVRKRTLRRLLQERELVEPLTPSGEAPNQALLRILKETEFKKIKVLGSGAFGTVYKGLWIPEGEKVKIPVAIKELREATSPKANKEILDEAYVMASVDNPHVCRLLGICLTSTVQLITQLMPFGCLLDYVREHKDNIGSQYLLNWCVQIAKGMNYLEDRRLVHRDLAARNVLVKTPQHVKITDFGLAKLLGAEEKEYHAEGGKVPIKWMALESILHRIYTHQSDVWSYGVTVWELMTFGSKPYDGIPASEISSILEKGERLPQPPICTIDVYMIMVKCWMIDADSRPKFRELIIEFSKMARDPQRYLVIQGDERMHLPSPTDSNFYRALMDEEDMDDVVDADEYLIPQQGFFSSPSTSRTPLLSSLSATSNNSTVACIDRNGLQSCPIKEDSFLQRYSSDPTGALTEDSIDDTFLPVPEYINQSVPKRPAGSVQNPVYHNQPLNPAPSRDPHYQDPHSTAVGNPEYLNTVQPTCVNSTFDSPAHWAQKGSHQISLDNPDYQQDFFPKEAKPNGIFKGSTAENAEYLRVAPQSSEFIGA

Consider `C=CC(=O)Nc1cccc(-c2c[nH]c3ncc(NC(=O)c4cccs4)cc23)c1` [Compound 12c, N-(3-(3-acrylamidophenyl)-1H-pyrrolo[2,3-b]pyridin-5-yl)thiophene-2-carboxamide], for which the ΔTm at 10 µM at kinase domain of BMX turned out to be 11.52 ± 0.08 °C; on kinase domain of JAK3 it was 7.36 ± 0.44 °C. The remaining activity at 0.2 µM on EGFR was 14.9%; at HER2, 41.1%; on TEC, 17.2%. For the same compound, the results for the IC50 against EGFR, at HER2 (setting [1]) and on TEC (setting [1]) were 12 nM, 118 nM and 13 nM, respectively.
`CCC(=O)Nc1cccc(-c2c[nH]c3ncc(NC(=O)C4CCCC4)cc23)c1` [Compound 12b, N-(3-(3-propionamidophenyl)-1H-pyrrolo[2,3-b]pyridin-5-yl)cyclopentanecarboxamide]: the figures for the remaining activity at 0.2 µM at EGFR, on HER2 and at TEC were more than 100%, more than 100% and 99.2%, respectively. Further, the IC50 against BMX was 582 nM.
As to `C=CC(=O)Nc1cccc(-c2c[nH]c3ncc(C(N)=O)cc23)c1` [Compound 10a, 3-(3-acrylamidophenyl)-1H-pyrrolo[2,3-b]pyridine-5-carboxamide], the ΔTm at 10 µM was found to be 10.49 ± 0.09 °C on kinase domain of BMX and 21.07 ± 0.03 °C at kinase domain of JAK3. Moreover, the remaining activity at 0.2 µM at EGFR turned out to be 95.5%; on HER2 it was 97%; at TEC, 42.1%; on BMX it was 1.6%. Moreover, the IC50 against EGFR was more than 10000 nM; on BMX, 29 nM.
For `C=CC(=O)Nc1cccc(-c2c[nH]c3ncccc23)c1` [Compound 9a, N-(3-(1H-pyrrolo[2,3-b]pyridin-3-yl)phenyl)acrylamide], the remaining activity at 0.2 µM at EGFR is more than 100%; at HER2, 95%; on TEC, 37.1%; at BMX, 2.7%. The IC50 against EGFR was 5250 nM.
With `C=CC(=O)Nc1cccc(-c2c[nH]c3ncc(C(=O)NC4CCCC4)cc23)c1` [Compound 11a, 3-(3-acrylamidophenyl)-N-cyclopentyl-1H-pyrrolo[2,3-b]pyridine-5-carboxamide], the ΔTm at 10 µM was 5.31 ± 0.18 °C at kinase domain of BMX and 9.12 ± 0.02 °C on kinase domain of JAK3. Besides, the IC50 against BMX worked out at 539 nM.

A word on the ΔTm: it is the change in melting temperature against a reference sample. One may read the IC50 as the concentration that inhibits the measured activity by half. Low readings indicate higher potency, high ones lower potency.
